Results from patent US20040023981A1, “Salt forms with tyrosine kinase activity” (priority 2002, published 2004).
Converted amounts (≈) assume the structure as drawn.

How the values were obtained:
physchem = conditions: thermodynamic from solid, room temperature
human KDR = target: T1, human KDR (Homo sapiens, UniProt P35968); assay: VEGF Receptor Kinase Assay; format: biochemical
T1 construct: cloning the cytoplasmic domain of the KDR kinase as an in frame fusion at the carboxy terminus of the GST gene; made in house; host or cells: Spodoptera frugiperda (Sf21) insect cells, baculovirus vector pAcG2T
T1 sequence (P35968 786-1356 limits assumed): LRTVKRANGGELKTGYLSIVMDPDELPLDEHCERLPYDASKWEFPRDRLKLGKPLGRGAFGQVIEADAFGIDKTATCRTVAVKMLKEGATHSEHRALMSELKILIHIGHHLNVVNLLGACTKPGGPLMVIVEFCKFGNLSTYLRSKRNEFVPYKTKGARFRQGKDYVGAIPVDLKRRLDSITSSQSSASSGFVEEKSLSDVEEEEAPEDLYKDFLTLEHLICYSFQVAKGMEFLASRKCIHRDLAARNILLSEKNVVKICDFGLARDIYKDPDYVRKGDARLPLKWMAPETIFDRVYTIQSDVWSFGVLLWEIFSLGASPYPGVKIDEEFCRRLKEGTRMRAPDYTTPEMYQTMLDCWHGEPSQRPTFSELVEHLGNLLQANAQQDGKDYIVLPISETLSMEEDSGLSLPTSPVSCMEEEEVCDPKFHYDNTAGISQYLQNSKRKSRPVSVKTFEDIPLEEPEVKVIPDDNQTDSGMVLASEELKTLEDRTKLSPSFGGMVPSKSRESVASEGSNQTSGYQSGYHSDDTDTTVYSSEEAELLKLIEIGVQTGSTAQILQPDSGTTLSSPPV
Experimental: VEGF receptor kinase activity is measured by incorporation of radio-labeled phosphate into polyglutamic acid, tyrosine, 4:1 (pEY) substrate. The phosphorylated pEY product is trapped onto a filter membrane and the incorporation of radio-labeled phosphate quantified by scintillation counting.
The intracellular tyrosine kinase domains of human KDR (Terman, B. I. et al. Oncogene (1991) vol. 6, pp. 1677-1683.) and Flt-1 (Shibuya, M. et al. Oncogene (1990) vol. 5, pp. 519-524) were cloned as glutathione S-transferase (GST) gene fusion proteins. This was accomplished by cloning the cytoplasmic domain of the KDR kinase as an in frame fusion at the carboxy terminus of the GST gene. Soluble recombinant GST-kinase domain fusion proteins were expressed in Spodoptera frugiperda (Sf21) insect cells (Invitrogen) using a baculovirus expression vector (pAcG2T, Pharmingen).
1) Add 5 μl of inhibitor or control to the assay in 50% DMSO.
2) Add 35 μl of reaction mix containing 5 μl of 10× reaction buffer, 5 μl 25 mM ATP/10 μCi [^33P]ATP (Amersham), and 5 μl 10× substrate.
3) Start the reaction by the addition of 10 μl of KDR (25 nM) in enzyme dilution buffer.
4) Mix and incubate at room temperature for 15 minutes.
5) Stop by the addition of 50 μl stop solution.
6) Incubate for 15 minutes at 4° C.
7) Transfer a 90 μl aliquot to filter plate.
8) Aspirate and wash 3 times with wash solution. […]

Row | SMILES | solubility (physchem; 50% aqueous IPA, aqueous with cosolvent or surfactant or cyclodextrin) | solubility (physchem; 50% aqueous ethanol, aqueous with cosolvent or surfactant or cyclodextrin) | solubility (physchem; water, pH 2.9, water) | kinase inhibitory activity (human KDR)
1 | CNC(=O)N1CCN(Cc2ccnc(Nc3ncc(C#N)s3)c2)CC1 [Form C, 4-[2-(5-cyano-thiazol-2-ylamino)-pyridin-4-ylmethyl]-piperazine-1-carboxylic acid methylamide] | 12.3 mg/mL (≈ 34.4 mM) | 10.4 mg/mL (≈ 29.1 mM) | 6 mg/mL (≈ 16.8 mM) | 
2 | CNC(=O)N1CCN(Cc2ccnc(Nc3ncc(C#N)s3)c2)CC1 [Compound 4-4, 4-[2-(5-cyano-thiazol-2-ylamino)-pyridin-4-ylmethyl]-piperazine-1-carboxylic acid methylamide] |  |  |  | inhibits the kinase KDR
